# Measured values from patent US20100209846A1, “NEGATIVE-WORKING IMAGEABLE ELEMENTS” (priority 2009, published 2010).
# Assay: Solubility of contrast dye in water
# Type: physicochemical
row,Solubility of contrast dye in 1 liter water [g],SMILES
1,0.25,CCCCCCC(CCCCCC)c1ccc(/C=C2/C(=C(C#N)C#N)c3ccccc3S2(=O)=O)c(C)c1
2,4,CN(C)c1ccc(C(=C2C=CC(=[N+](C)C)C=C2)c2ccc(N(C)C)cc2)cc1 [Crystal Violet]
